Read-outs that look alike come from different tables or passages of the source.
Experiments:
A2780 cells = assay: Viability assay in A2780 (Cell Titer Glo); assay type: cell-based, human; details: Homo sapiens
Method in brief: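 EC50 values come from Cell Titer Glo luminescence after 72 hrs of compound exposure at 37° C, run in duplicate. A2780 cells were plated at 1,000 per well in DMEM with 10% FBS and dosed with 3-fold serial dilutions.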

PI3 K Alpha = PI3 K Alpha (Homo sapiens, UniProt P42336); assay: PI3 kinase phosphorylation assays (homogenous solution phase, one step solid phase, ATP depletion/KinaseGlo); assay type: biochemical
[1] = test system: pSer473-Akt in A2780 cells; assay: pSer473 Akt assay to monitor PI3K pathway in A2780 cells (MSD); assay type: cell-based; details: Homo sapiens
Method in brief: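 EC50 is derived from percent inhibition of Akt Ser473 phosphorylation, normalised to total Akt and compared with DMSO-only wells, read by MSD immunoassay. Lysates came from A2780 cells plated overnight at 15,000/well and exposed to compound for one hour at 37 °C.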

[2] = A2780 cells, read-out: A2780 Cell prolif. EC50
[3] = A2780 cells, read-out: A2780 pAKT 473 EC50
[4] = A2780 cells, 72 hrs, read-out: A2780 Cell prolif. EC50
[5] = ATP depletion assay, read-out: PI3 K Alpha IC50
[6] = 1 h, A2780 cells, one hour incubation, read-out: A2780 pAKT473 EC50

Chain of PI3 K Alpha (P42336 whole entry): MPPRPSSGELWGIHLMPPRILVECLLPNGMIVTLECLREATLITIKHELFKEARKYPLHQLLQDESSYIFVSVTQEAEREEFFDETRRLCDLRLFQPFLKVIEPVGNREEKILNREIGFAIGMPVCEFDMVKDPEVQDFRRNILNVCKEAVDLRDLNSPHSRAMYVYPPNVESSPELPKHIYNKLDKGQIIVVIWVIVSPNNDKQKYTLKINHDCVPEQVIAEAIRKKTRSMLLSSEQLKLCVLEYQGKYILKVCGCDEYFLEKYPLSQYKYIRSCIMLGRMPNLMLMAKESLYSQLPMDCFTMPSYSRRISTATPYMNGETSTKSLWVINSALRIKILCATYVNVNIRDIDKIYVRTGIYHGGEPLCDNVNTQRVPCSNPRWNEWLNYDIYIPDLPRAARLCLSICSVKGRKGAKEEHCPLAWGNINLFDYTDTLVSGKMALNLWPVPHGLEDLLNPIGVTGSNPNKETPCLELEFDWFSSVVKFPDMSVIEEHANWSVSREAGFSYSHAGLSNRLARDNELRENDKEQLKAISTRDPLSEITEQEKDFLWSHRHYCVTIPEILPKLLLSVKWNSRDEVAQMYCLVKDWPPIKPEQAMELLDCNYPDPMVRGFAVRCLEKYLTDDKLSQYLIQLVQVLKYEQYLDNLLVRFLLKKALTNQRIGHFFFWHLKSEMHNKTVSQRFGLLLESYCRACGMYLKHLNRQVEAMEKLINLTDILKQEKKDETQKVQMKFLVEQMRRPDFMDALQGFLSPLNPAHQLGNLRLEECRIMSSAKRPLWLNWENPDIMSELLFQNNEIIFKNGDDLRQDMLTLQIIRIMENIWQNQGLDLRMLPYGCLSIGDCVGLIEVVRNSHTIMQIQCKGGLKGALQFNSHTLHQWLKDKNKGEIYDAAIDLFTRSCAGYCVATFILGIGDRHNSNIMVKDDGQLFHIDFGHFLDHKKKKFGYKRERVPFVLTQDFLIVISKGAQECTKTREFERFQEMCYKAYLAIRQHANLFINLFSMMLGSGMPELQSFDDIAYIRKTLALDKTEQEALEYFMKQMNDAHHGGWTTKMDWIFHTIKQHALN
Chain of PI3 K Alpha (P27986 whole entry partner): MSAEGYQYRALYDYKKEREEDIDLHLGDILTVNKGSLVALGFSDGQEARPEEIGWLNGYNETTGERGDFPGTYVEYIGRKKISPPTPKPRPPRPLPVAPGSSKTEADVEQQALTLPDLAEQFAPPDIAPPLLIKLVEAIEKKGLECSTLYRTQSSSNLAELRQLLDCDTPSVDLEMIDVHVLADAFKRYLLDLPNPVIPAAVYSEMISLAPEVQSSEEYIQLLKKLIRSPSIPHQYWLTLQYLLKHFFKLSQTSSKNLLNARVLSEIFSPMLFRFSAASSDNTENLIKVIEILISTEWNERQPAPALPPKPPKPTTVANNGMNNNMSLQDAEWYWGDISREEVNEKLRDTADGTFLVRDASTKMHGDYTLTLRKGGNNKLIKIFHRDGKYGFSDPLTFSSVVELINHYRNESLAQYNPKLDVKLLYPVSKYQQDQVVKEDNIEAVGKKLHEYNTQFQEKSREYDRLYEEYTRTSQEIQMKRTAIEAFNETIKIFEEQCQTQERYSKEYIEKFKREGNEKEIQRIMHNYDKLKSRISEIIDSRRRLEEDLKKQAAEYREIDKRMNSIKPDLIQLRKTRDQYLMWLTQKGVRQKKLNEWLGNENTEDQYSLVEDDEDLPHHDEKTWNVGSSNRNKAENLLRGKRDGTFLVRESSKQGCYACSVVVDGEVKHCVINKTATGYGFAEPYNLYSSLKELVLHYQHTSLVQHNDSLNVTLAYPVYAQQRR

SMILES	EC50 (A2780 cells; [2]) [µM]	IC50 (PI3 K Alpha; read-out: PI3K Alpha IC50) [µM]	EC50 [1, 3] [µM]	also measured
CCN1CCN(CCCC(=O)Nc2cn3cc(-c4cnc(N)c(C(F)(F)F)c4)ccc3n2)CC1 [Example 206, N-(6-(6-amino-5-(trifluoromethyl)pyridin-3-yl)imidazo[1,2-a]pyridin-2-yl)-4-(4-ethylpiperazin-1-yl)butanamide]	< 10	< 1	< 1	–
CC(=O)Nc1cn2cc(-c3cnc(N)c(/C=N/Nc4ccccc4)c3)ccc2n1 [Example 58, (E)-N-(6-(6-amino-5-((2-phenylhydrazono)methyl)pyridin-3-yl)imidazo[1,2-a]pyridin-2-yl)acetamide]	< 1	< 1	< 10	–
COCCOc1nc(-c2ccc3nc(NC(C)=O)sc3c2)cnc1N [Example 2-32, N-(6-(5-amino-6-(2-methoxyethoxy)pyrazin-2-yl)benzo[d]thiazol-2-yl)acetamide]	–	–	–	EC50 (A2780 cells; [4]): < 10 µM; IC50 (PI3 K Alpha; [5]): < 1 µM; EC50 [1, 6]: < 1 µM
CC(C)(C)OC(=O)NCCCC(=O)Nc1cn2nc(-c3cnc(N)c(C(F)(F)F)c3)ccc2n1 [Example 79, tert-butyl 4-(6-(6-amino-5-(trifluoromethyl)pyridin-3-yl)imidazo[1,2-b]pyridazin-2-ylamino)-4-oxobutylcarbamate]	< 1	< 1	< 10	–
NC(=O)[C@@H]1CCCN1C(=O)Nc1nc2ccc(-c3cnc(N)c(C(F)(F)F)c3)cc2s1 [Example 2-33, (S)-N1-(6-(6-amino-5-(trifluoromethyl)pyridin-3-yl)benzo[d]thiazol-2-yl)pyrrolidine-1,2-dicarboxamide]	–	–	–	EC50 (A2780 cells; [4]): < 10 µM; IC50 (PI3 K Alpha; [5]): < 1 µM; EC50 [1, 6]: < 1 µM
COCCCOc1nc(-c2ccc3nc(NC(C)=O)cn3c2)cnc1N [Example 73]	< 1	< 1	< 1	–
CC(=O)Nc1cn2cc(-c3ccc(N)nc3)ccc2n1 [Example 3, N-[6-(6-Amino-pyridin-3-yl)-imidazo[1,2-a]pyridin-2-yl]-acetamide]	< 10	< 1	< 1	–
CC(=O)Nc1nc2ccc(-c3cnc(N)c(CN(C)C)c3)cc2s1 [Example 2-25, N-[6-(6-Amino-5-dimethylamino-methyl-pyridin-3-yl)-benzothiazol-2-yl]-acetamide]	–	–	–	EC50 (A2780 cells; [4]): < 10 µM; IC50 (PI3 K Alpha; [5]): < 1 µM; EC50 [1, 6]: < 1 µM
Nc1ncc(-c2ccc3nc(NC(=O)CCC4CCCCN4)cn3n2)cc1C(F)(F)F (stereo not drawn) [Example 59, N-(6-(6-amino-5-(trifluoromethyl)pyridin-3-yl)imidazo[1,2-b]pyridazin-2-yl)-3-(piperidin-2-yl)propanamide]	< 1	< 1	< 1	–
CC(C)(C)OC(=O)N1CCN(c2ccc(C(=O)Nc3cn4cc(-c5cnc(N)c(C(F)(F)F)c5)ccc4n3)cn2)CC1 [Example 85, tert-butyl 4-(5-(6-(6-amino-5-(trifluoromethyl)pyridin-3-yl)imidazo[1,2-a]pyridin-2-ylcarbamoyl)pyridin-2-yl)piperazine-1-carboxylate]	< 1	< 1	< 1	–
CC(=O)Nc1cn2cc(-c3cnc(N)c(-c4cccc(C(F)(F)F)c4)c3)ccc2n1 [Example 88, N-(6-(6-amino-5-(3-(trifluoromethyl)phenyl)pyridin-3-yl)imidazo[1,2-a]pyridin-2-yl)acetamide]	< 1	< 1	< 1	–
CC(=O)Nc1cn2cc(-c3cnc(N)c(Oc4cccc(F)c4)n3)ccc2n1 [Example 65, N-(6-(5-amino-6-(3-fluorophenoxy)pyrazin-2-yl)imidazo[1,2-a]pyridin-2-yl)acetamide]	< 1	< 1	< 1	–
Nc1ncc(-c2ccc3nc(NC(=O)CCCN4CCOCC4)cn3n2)cc1C(F)(F)F [Example 108, N-(6-(6-amino-5-(trifluoromethyl)pyridin-3-yl)imidazo[1,2-b]pyridazin-2-yl)-4-morpholino-butanamide]	< 1	< 1	< 1	–
CC(C)(C)OC(=O)N1CC[C@H](OCC(=O)Nc2cn3nc(-c4cnc(N)c(C(F)(F)F)c4)ccc3n2)C1 [Example 98, (S)-tert-butyl 3-(2-(6-(6-amino-5-(trifluoromethyl)pyridin-3-yl)imidazo[1,2-b]pyridazin-2-ylamino)-2-oxoethoxy) pyrrolidine-1-carboxylate]	< 1	< 1	< 1	–
CNCC(=O)Nc1cn2nc(-c3cnc(N)c(C(F)(F)F)c3)ccc2n1 [Example 60, N-(6-(6-amino-5-(trifluoromethyl)pyridin-3-yl)imidazo[1,2-b]pyridazin-2-yl)-2-(methylamino) acetamide]	< 1	< 1	< 1	–
CC(=O)Nc1nc2ccc(-c3cnc(N)c(C(=O)N4CCOCC4)c3)cc2s1 [Example 2-26, N-{6-[6-Amino-5-(morpholine-4-carbonyl)-pyridin-3-yl]-benzothiazol-2-yl}-acetamide]	–	–	–	EC50 (A2780 cells; [4]): < 10 µM; IC50 (PI3 K Alpha; [5]): < 1 µM; EC50 [1, 6]: < 1 µM
COc1ccc(CC(=O)Nc2cn3cc(-c4cnc(N)c(C(F)(F)F)c4)ccc3n2)cc1 [Example 99, N-(6-(6-amino-5-(trifluoromethyl)pyridin-3-yl)imidazo[1,2-a]pyridin-2-yl)-2-(4-methoxyphenyl) acetamide]	< 1	< 1	< 1	–
CC(=O)Nc1nc2ccc(-c3cnc(N)c(C(F)(F)F)c3)cn2c1C#Cc1cccnc1 [Example 83, N-(6-(6-amino-5-(trifluoromethyl)pyridin-3-yl)-3-(pyridin-3-ylethynyl)imi-dazo[1,2-a]pyridin-2-yl)acetamide]	–	–	–	EC50 (A2780 cells; A2780, read-out: A2780 Cell prolif. EC50): < 1 µM; IC50 (PI3 K Alpha): < 1 µM; EC50 ([1]; A2780, read-out: A2780 pAKT 473 EC50): < 1 µM
CC(=O)Nc1cn2cc(-c3cnc(N)c(Oc4cccnc4)n3)ccc2n1 [Example 91, N-(6-(5-amino-6-(pyridin-3-yloxy)pyrazin-2-yl)imidazo[1,2-a]pyridin-2-yl)acetamide]	< 1	< 1	< 1	–
CNC(=O)Nc1nc2ccc(-c3ccc(N)nc3)cc2s1 [Example 2-23, 1-[6-(6-Amino-pyridin-3-yl)-benzothiazol-2-yl]-3-methyl-urea]	–	–	–	EC50 (A2780 cells; [4]): < 10 µM; IC50 (PI3 K Alpha; [5]): < 1 µM; EC50 [1, 6]: < 1 µM
Nc1ncc(-c2ccc3nc(NC(=O)c4ccc(N5CCNCC5)nc4)cn3c2)cc1C(F)(F)F [Example 126, N-(6-(6-amino-5-(trifluoromethyl)pyridin-3-yl)imidazo[1,2-a]pyridin-2-yl)-6-(piperazin-1-yl)nicotinamide]	< 10	< 1	< 1	–
CC(=O)Nc1cn2cc(-c3cnc(N)c(N4CCN(C)CC4)n3)ccc2n1 [Example 131, N-(6-(5-amino-6-(4-methylpiperazin-1-yl)pyrazin-2-yl)imidazo[1,2-a]pyridin-2-yl)acetamide]	< 10	< 1	< 1	–
NCC(=O)Nc1cn2cc(-c3cnc(N)c(C(F)(F)F)c3)ccc2n1 [Example 215, 2-amino-N-(6-(6-amino-5-(trifluoromethyl)pyridin-3-yl)imidazo[1,2-a]pyridin-2-yl)acetamide]	< 10	< 1	< 10	–
COC(=O)Nc1nc2ccc(-c3ccc(N)nc3)cc2s1 [Example 2-3, [6-(6-Amino-pyridin-3-yl)-benzothiazol-2-yl]-carbamic acid methyl ester]	–	–	–	EC50 (A2780 cells; [4]): < 10 µM; IC50 (PI3 K Alpha; [5]): < 1 µM; EC50 [1, 6]: < 1 µM
COC(=O)CCCC(=O)Nc1cn2nc(-c3cnc(N)c(C(F)(F)F)c3)ccc2n1 [Example 132, methyl 5-(6-(6-amino-5-(trifluoromethyl)pyridin-3-yl)imidazo[1,2-b]pyridazin-2-ylamino)-5-oxopentanoate]	< 10	< 1	< 1	–
CC(=O)Nc1cn2cc(-c3cnc(N)c(-c4ccccc4F)c3)ccc2n1 [Example 114, N-(6-(6-amino-5-(2-fluorophenyl)pyridin-3-yl)imidazo[1,2-a]pyridin-2-yl)acetamide]	< 10	< 1	< 1	–
CC(=O)Nc1cn2nc(-c3cnc(N)c(C(=O)NCCNC(=O)OC(C)(C)C)c3)ccc2n1 [Example 103, tert-butyl 2-(5-(2-acetamido-imidazo[1,2-b]pyridazin-6-yl)-2-aminonicotin-amido)ethyl-carbamate]	< 1	< 1	< 1	–
COc1ccc(CC(=O)Nc2cn3cc(-c4cnc(N)c(C(F)(F)F)c4)ccc3n2)cc1OC [Example 51]	< 10	< 1	< 1	–
CC(=O)Nc1cn2cc(-c3cnc(N)c(-c4ccccc4)n3)ccc2n1 [Example 113, N-(6-(5-amino-6-phenylpyrazin-2-yl)imidazo[1,2-a]pyridin-2-yl)acetamide]	< 10	< 1	< 1	–
CC(=O)Nc1cn2cc(-c3cnc(N)c(/C=N/NCC(F)(F)F)c3)ccc2n1 [Example 76, (E)-N-(6-(6-amino-5-((2-(2,2,2-trifluoroethyl) hydrazono)methyl)pyridin-3-yl)imidazo[1,2-a]pyridin-2-yl)acetamide]	< 1	< 1	< 1	–
